Test results published in patent US20230148214A1, “INDAZOLES AND AZAINDAZOLES AS LRRK2 INHIBITORS” (ESCAPE Bio, Inc., priority 2020, published 2023).

Experiments:
LRRK2 WT = target: T1, LRRK2 WT (Homo sapiens, UniProt Q5S007); assay: LRRK2 Kinase Activity Assay (LanthaScreen TR-FRET), wild type; type: biochemical; details: recombinant wild type LRRK2, 25 μM ATP, 400 nM LRRKtide, 60 min; class symbols
T1 construct: purchased Life Technologies PR8604B
How it was run: (§1)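 IC50 fitted to the compound-dependent loss of TR-FRET signal. Each kinase form, wild type or G2019S, phosphorylated the fluorescein-tagged ERM-derived LRRKtide in the presence of ATP and compound dilutions over 60 min at room temperature; quench contained 10 mM EDTA and 2 nM anti-pERM antibody (final).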

LRRK2 G2019S = target: T2, LRRK2 G2019S (Homo sapiens, UniProt Q5S007, G2019S); assay: LRRK2 Kinase Activity Assay (LanthaScreen TR-FRET), G2019S; type: biochemical; details: recombinant G2019S-LRRK2, 25 μM ATP, 400 nM LRRKtide, 60 min; class symbols
T2 construct: purchased Life Technologies PV4881
How it was run: as §1

T2 sequence (Q5S007 whole entry G2019S): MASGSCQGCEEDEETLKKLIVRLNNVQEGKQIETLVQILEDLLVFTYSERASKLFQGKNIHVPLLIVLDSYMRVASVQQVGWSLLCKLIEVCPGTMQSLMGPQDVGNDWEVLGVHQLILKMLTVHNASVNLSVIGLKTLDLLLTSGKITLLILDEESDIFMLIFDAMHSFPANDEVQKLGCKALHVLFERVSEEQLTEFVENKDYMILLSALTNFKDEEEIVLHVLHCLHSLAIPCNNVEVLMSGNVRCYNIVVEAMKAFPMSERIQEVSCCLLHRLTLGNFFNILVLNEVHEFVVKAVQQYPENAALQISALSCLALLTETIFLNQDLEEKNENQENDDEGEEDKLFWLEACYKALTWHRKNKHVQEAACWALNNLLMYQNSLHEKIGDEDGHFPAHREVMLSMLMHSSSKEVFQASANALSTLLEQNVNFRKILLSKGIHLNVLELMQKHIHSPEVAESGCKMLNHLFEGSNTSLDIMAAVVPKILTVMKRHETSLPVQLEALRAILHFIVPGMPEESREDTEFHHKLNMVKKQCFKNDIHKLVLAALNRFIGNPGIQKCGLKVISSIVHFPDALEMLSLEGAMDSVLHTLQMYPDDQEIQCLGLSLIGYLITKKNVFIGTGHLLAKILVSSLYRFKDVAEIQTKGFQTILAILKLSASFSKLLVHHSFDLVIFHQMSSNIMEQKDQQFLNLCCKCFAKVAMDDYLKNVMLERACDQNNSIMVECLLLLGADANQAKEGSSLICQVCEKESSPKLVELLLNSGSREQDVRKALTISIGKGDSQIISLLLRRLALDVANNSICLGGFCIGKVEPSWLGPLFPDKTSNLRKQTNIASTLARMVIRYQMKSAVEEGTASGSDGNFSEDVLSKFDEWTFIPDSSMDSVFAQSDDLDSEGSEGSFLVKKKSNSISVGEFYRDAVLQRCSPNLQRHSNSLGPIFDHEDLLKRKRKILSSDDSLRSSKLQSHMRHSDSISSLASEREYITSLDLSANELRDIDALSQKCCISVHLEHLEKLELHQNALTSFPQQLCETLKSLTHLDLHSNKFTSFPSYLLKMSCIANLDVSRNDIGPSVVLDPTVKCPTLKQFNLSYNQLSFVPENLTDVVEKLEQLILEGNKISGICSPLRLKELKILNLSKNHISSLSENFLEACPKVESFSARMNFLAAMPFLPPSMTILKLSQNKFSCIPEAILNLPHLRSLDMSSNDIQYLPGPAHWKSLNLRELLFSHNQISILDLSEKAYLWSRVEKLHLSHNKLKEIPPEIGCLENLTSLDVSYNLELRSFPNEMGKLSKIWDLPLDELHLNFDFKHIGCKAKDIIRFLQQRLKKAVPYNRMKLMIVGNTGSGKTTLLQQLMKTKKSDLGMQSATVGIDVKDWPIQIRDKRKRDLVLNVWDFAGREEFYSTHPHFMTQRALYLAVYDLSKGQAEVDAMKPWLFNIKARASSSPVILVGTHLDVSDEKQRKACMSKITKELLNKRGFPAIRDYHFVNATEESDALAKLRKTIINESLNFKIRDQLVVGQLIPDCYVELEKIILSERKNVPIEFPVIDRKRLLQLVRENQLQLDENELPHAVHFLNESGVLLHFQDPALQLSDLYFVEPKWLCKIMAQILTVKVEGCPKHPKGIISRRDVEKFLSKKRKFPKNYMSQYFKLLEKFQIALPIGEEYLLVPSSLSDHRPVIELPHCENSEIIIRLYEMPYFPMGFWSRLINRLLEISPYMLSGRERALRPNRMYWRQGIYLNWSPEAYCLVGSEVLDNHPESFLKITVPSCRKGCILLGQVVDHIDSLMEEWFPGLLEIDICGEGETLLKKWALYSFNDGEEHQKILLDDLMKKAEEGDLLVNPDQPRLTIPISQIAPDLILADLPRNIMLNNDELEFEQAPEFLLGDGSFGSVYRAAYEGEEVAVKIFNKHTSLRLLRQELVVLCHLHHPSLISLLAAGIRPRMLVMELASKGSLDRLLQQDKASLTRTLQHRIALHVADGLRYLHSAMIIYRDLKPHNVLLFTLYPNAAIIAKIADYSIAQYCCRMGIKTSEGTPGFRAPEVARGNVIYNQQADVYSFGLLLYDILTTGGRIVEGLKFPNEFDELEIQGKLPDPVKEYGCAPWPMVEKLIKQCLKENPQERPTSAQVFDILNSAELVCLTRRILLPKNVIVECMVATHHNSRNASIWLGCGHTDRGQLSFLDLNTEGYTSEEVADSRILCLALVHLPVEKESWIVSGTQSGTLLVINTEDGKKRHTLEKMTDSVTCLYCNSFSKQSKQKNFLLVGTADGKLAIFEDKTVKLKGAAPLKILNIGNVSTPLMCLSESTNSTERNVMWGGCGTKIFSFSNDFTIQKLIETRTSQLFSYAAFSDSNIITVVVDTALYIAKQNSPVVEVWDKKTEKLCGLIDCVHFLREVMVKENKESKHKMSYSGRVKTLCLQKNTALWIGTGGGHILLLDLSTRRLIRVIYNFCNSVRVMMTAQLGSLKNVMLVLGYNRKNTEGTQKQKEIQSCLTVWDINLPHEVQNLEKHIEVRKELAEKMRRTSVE
T1 sequence (Q5S007 whole entry): as the sequence (Q5S007 whole entry G2019S) above, with S2019G counted along it

Row | Structure (SMILES) | IC50 (LRRK2 WT) [nM] | IC50 (LRRK2 G2019S) [nM]
1 | Cc1nc2c(cc1C#N)CCC[C@@H]2Nc1ccc2[nH]nc(-c3cnco3)c2c1 (single isomer, unassigned) [Example 106, enantiomer 1, 2-Methyl-8-((3-(oxazol-5-yl)-1H-indazol-5-yl)amino)-5,6,7,8-tetrahydroquinoline-3-carbonitrile] | 100 to 1000 | < 100
2 | Cc1c(C#N)cnc2c1CC[C@@H]2Oc1ccc2[nH]nc(-c3cnco3)c2c1 (single isomer, unassigned) [Example 107, enantiomer 1, 4-Methyl-7-((3-(oxazol-5-yl)-1H-indazol-5-yl)oxy)-6,7-dihydro-5H-cyclopenta[b]pyridine-3-carbonitrile] | < 100 | < 100
3 | Cc1c(C#N)cnc2c1CC[C@@H]2Oc1ccc2[nH]nc(-c3cnco3)c2c1 (single isomer, unassigned) [Example 107, enantiomer 2, 4-Methyl-7-((3-(oxazol-5-yl)-1H-indazol-5-yl)oxy)-6,7-dihydro-5H-cyclopenta[b]pyridine-3-carbonitrile] | 100 to 1000 | < 100
4 | Cc1c(C#N)cnc2c1CC[C@@H]2Nc1ccc2[nH]nc(-c3cnco3)c2c1 (single isomer, unassigned) [Example 108, enantiomer 1, 4-Methyl-7-((3-(oxazol-5-yl)-1H-indazol-5-yl)amino)-6,7-dihydro-5H-cyclopenta[b]pyridine-3-carbonitrile] | 100 to 1000 | < 100
5 | N#Cc1cnc2c(c1)CC[C@@H]2Nc1ccc2[nH]nc(-c3cnco3)c2c1 (single isomer, unassigned) [Example 109, enantiomer 1, 7-((3-(Oxazol-5-yl)-1H-indazol-5-yl)amino)-6,7-dihydro-5H-cyclopenta[b]pyridine-3-carbonitrile] | < 100 | < 100
6 | N#Cc1cnc2c(c1)CC[C@@H]2Nc1ccc2[nH]nc(-c3cnco3)c2c1 (single isomer, unassigned) [Example 109, enantiomer 2, 7-((3-(Oxazol-5-yl)-1H-indazol-5-yl)amino)-6,7-dihydro-5H-cyclopenta[b]pyridine-3-carbonitrile] | 100 to 1000 | < 100
7 | Cc1cc2c(cc1C#N)CCC[C@@H]2Nc1ccc2[nH]nc(-c3cnco3)c2c1 (single isomer, unassigned) [Example 110, enantiomer 1, 3-Methyl-5-((3-(oxazol-5-yl)-1H-indazol-5-yl)amino)-5,6,7,8-tetrahydronaphthalene-2-carbonitrile] | < 100 | < 100
8 | Cc1cc2c(cc1C#N)CCC[C@@H]2Nc1ccc2[nH]nc(-c3cnco3)c2c1 (single isomer, unassigned) [Example 110, enantiomer 2, 3-Methyl-5-((3-(oxazol-5-yl)-1H-indazol-5-yl)amino)-5,6,7,8-tetrahydronaphthalene-2-carbonitrile] | 100 to 1000 | < 100
9 | CN(c1ccc2[nH]nc(-c3cnco3)c2c1)[C@H]1CCc2cc(C#N)ccc21 (single isomer, unassigned) [Example 111, enantiomer 1, 1-(Methyl(3-(oxazol-5-yl)-1H-indazol-5-yl)amino)-2,3-dihydro-1H-indene-5-carbonitrile] | < 100 | < 100
10 | CN(c1ccc2[nH]nc(-c3cnco3)c2c1)[C@H]1CCc2cc(C#N)ccc21 (single isomer, unassigned) [Example 111, enantiomer 2, 1-(Methyl(3-(oxazol-5-yl)-1H-indazol-5-yl)amino)-2,3-dihydro-1H-indene-5-carbonitrile] | 100 to 1000 | < 100
11 | N#Cc1cc2c(nc1Cl)[C@@H](Nc1ccc3[nH]nc(-c4cnco4)c3c1)CCC2 (single isomer, unassigned) [Example 112, enantiomer 1, 2-Chloro-8-((3-(oxazol-5-yl)-1H-indazol-5-yl)amino)-5,6,7,8-tetrahydroquinoline-3-carbonitrile] | 100 to 1000 | < 100
12 | COc1c(C#N)ccc2c1CC[C@@H]2Nc1ccc2[nH]nc(-c3cnco3)c2c1 (single isomer, unassigned) [Example 113, enantiomer 1, 4-Methoxy-1-((3-(oxazol-5-yl)-1H-indazol-5-yl)amino)-2,3-dihydro-1H-indene-5-carbonitrile] | < 100 | < 100

Next, values leading:

Row | IC50 (LRRK2 WT) [nM] | IC50 (LRRK2 G2019S) [nM] | Structure (SMILES)
13 | 100 to 1000 | 100 to 1000 | COc1cc2c(cc1C#N)CCC[C@@H]2Nc1ccc2[nH]nc(-c3cnoc3)c2c1 (single isomer, unassigned) [Example 114, enantiomer 1, 5-((3-(Isoxazol-4-yl)-1H-indazol-5-yl)amino)-3-methoxy-5,6,7,8-tetrahydronaphthalene-2-carbonitrile]
14 | < 100 | < 100 | COc1cc2c(cc1C#N)CCC[C@@H]2Nc1ccc2[nH]nc(-c3cnoc3)c2c1 (single isomer, unassigned) [Example 114, enantiomer 2, 5-((3-(Isoxazol-4-yl)-1H-indazol-5-yl)amino)-3-methoxy-5,6,7,8-tetrahydronaphthalene-2-carbonitrile]
15 | 100 to 1000 | < 100 | CC1(C)CC[C@H](Nc2ccc3[nH]nc(-c4cnco4)c3c2)c2ccc(C#N)cc21 (single isomer, unassigned) [Example 115, enantiomer 1, 8,8-Dimethyl-5-((3-(oxazol-5-yl)-1H-indazol-5-yl)amino)-5,6,7,8-tetrahydronaphthalene-2-carbonitrile]
16 | 100 to 1000 | < 100 | CC1(C)CC[C@H](Nc2ccc3[nH]nc(-c4cnco4)c3c2)c2ccc(C#N)cc21 (single isomer, unassigned) [Example 115, enantiomer 2, 8,8-Dimethyl-5-((3-(oxazol-5-yl)-1H-indazol-5-yl)amino)-5,6,7,8-tetrahydronaphthalene-2-carbonitrile]
17 | < 100 | < 100 | CCc1cc(-c2n[nH]c3ccc(N[C@H]4CCCc5cc(C#N)ccc54)cc23)ccn1 (single isomer, unassigned) [Example 116, enantiomer 1, 5-((3-(2-Ethylpyridin-4-yl)-1H-indazol-5-yl)amino)-5,6,7,8-tetrahydronaphthalene-2-carbonitrile]
18 | < 100 | < 100 | Cc1c(C#N)ccc2c1CC[C@H]2Nc1ccc2[nH]nc(-c3cnoc3)c2c1 (single isomer, unassigned) [Example 118, enantiomer 1, 1-((3-(Isoxazol-4-yl)-1H-indazol-5-yl)amino)-4-methyl-2,3-dihydro-1H-indene-5-carbonitrile]
19 | 100 to 1000 | < 100 | N#Cc1ccc2c(c1)CCC[C@H]2Nc1ccc2[nH]nc(-c3cnco3)c2c1 (single isomer, unassigned) [Example 119, enantiomer 1, 5-((3-(Oxazol-5-yl)-1H-indazol-5-yl)amino)-5,6,7,8-tetrahydronaphthalene-2-carbonitrile]
20 | < 100 | < 100 | N#Cc1cnc2c(c1)CCC[C@H]2Nc1ccc2[nH]nc(-c3cnco3)c2c1 (single isomer, unassigned) [Example 120, enantiomer 1, 8-((3-(Oxazol-5-yl)-1H-indazol-5-yl)amino)-5,6,7,8-tetrahydroquinoline-3-carbonitrile]
21 | < 100 | < 100 | CCc1cc(-c2n[nH]c3ccc(O[C@@H]4CCCc5cc(C#N)cnc54)cc23)ccn1 (single isomer, unassigned) [Example 121, enantiomer 1, 8-((3-(2-Ethylpyridin-4-yl)-1H-indazol-5-yl)oxy)-5,6,7,8-tetrahydroquinoline-3-carbonitrile]
22 | 100 to 1000 | < 100 | N#Cc1cc2c(cn1)[C@H](Oc1ccc3[nH]nc(-c4cnco4)c3c1)CCC2 (single isomer, unassigned) [Example 122, enantiomer 1, 8-((3-(Oxazol-5-yl)-1H-indazol-5-yl)oxy)-5,6,7,8-tetrahydroisoquinoline-3-carbonitrile]
23 | < 100 | < 100 | COc1cc(-c2n[nH]c3ccc(O[C@H]4CCCc5cc(C#N)cnc54)cc23)ccn1 (single isomer, unassigned) [Example 123, enantiomer 1, 8-((3-(2-Methoxypyridin-4-yl)-1H-indazol-5-yl)oxy)-5,6,7,8-tetrahydroquinoline-3-carbonitrile]
24 | 100 to 1000 | < 100 | N#Cc1ccc2c(c1)CC[C@@H]2Oc1ccc2[nH]nc(C3CC3)c2c1 (single isomer, unassigned) [Example 124, enantiomer 1, 1-((3-Cyclopropyl-1H-indazol-5-yl)oxy)-2,3-dihydro-1H-indene-5-carbonitrile]
25 | 100 to 1000 | < 100 | N#Cc1cnc2c(c1)CCC[C@@H]2Nc1ccc2[nH]nc(Br)c2c1 (single isomer, unassigned) [Example 125, enantiomer 1, 8-((3-Bromo-1H-indazol-5-yl)amino)-5,6,7,8-tetrahydroquinoline-3-carbonitrile]
26 | 1000 to 10000 | 100 to 1000 | N#Cc1cnc2c(c1)CCC[C@@H]2Nc1ccc2[nH]nc(Br)c2c1 (single isomer, unassigned) [Example 125, enantiomer 2, 8-((3-Bromo-1H-indazol-5-yl)amino)-5,6,7,8-tetrahydroquinoline-3-carbonitrile]
27 | 1000 to 10000 | 1000 to 10000 | N#Cc1cnc2c(c1)CCC[C@@H]2Nc1ccc2[nH]nc(Cl)c2c1 (single isomer, unassigned) [Example 126, enantiomer 1, 8-((3-Chloro-1H-indazol-5-yl)amino)-5,6,7,8-tetrahydroquinoline-3-carbonitrile]
28 | 100 to 1000 | < 100 | N#Cc1cnc2c(c1)CCC[C@@H]2Nc1ccc2[nH]nc(Cl)c2c1 (single isomer, unassigned) [Example 126, enantiomer 2, 8-((3-Chloro-1H-indazol-5-yl)amino)-5,6,7,8-tetrahydroquinoline-3-carbonitrile]
